The values that follow come from ChEMBL document CHEMBL3102853, “Carbonic anhydrase inhibitors. Synthesis, and molecular structure of novel series N-substituted N'-(2-arylmethylthio-4-chloro-5-methylbenzenesulfonyl)guanidines and their inhibition of human cytosolic isozymes I and II and the transmembrane tumor-associated isozymes IX and XII” (Eur J Med Chem, 2014).

The target of this assay is Carbonic anhydrase 9 (Homo sapiens, UniProt Q16790).

Description: Inhibition of CA9 (unknown origin)

Compound `NS(=O)(=O)c1ccc2c(c1)CCC2NC(=O)c1c(F)c(F)c(F)c(F)c1F` (stereo unspecified) showed an inhibitory constant (Ki) of 3.2 nM.

By Ki is commonly meant the dissociation constant of the complex between target and ligand, obtained from inhibition or displacement. Read a low Ki as higher affinity.
